The subject of assay [1] is NK cells. Put plainly: Intracellular ATP concentration in NK cells, luciferase-based assay (CellTiter-Glo 2.0). In kind it is cell-based. As to conditions: Homo sapiens; isolated NK cells, 30,000 cells per well, pyruvate 0.01 to 10mM, 4 hours; read-out: EC50 for the intracellular ATP production (the pyruvate concentration at which the ATP production is half-maximal). As to the method: (§1) Peripheral blood samples from healthy subjects were obtained from the French blood bank (Etablissement Français du sang, Lyon, France).
(§2) Human PBMCs were separated from peripheral blood by Ficoll® gradient centrifugation (Eurobio Laboratoires & AbCys) at room temperature. The PBMCs were kept at 4°C in complete medium overnight.
NK cells (CD56^Dim CD3) were isolated using an NK Cell Isolation Kit (Miltenyi Biotec) following the manufacturer's instructions, and then sorted (BD FACS ARIA II, purity > 99%, the following mAbs from eBioscience, BD Biosciences, Biolegend or Cell Signalling Technology were used: anti-CD56 (NCAM16.2), and anti-CD3 (UCHT1)). Freshly sorted NK cells were left to recover from the sorting overnight at 37°C with a non-activating dose of IL-15 (1 ng/ml, Peprotech) in RPMI 1640 medium additionally containing 10% FBS, 2mM HEPES, 2mM glutamine, 1mM pyruvate (sodium pyruvate) and 1% penicillin/streptomycin (HCL Technologies). […]
The intracellular ATP concentration at each concentration of pyruvate was measured using a luciferase-based assay following the manufacturer's instructions (CellTiter-Glo® 2.0 Cell Viability Assay and NAD/NADH-Glo Assay, Promega Corporation, Madison, WI). Luminescence was measured using a Tristar luminometer (Berthold).
For orientation: In ATP-based viability assays light output follows the ATP content of the culture.

Assay [2] relates to NK cells. Put plainly: Cytotoxicity of NK cells against K562 NanoLuc-expressing target cells (bioluminescence lysis assay). The format is cell-based. As to conditions: Homo sapiens; pyruvate 0.01 to 10 mM for 3 hours, then co-cultured for 4 hours with K562 NanoLuc-expressing target cells; read-out: EC50 for the cytotoxicity of the NK cells (the pyruvate concentration at which the cytotoxicity is half-maximal). The method, then: as §1, §2
NK cells (CD56^Dim CD3) were isolated using an NK Cell Isolation Kit (Miltenyi Biotec) following the manufacturer's instructions, and then sorted (BD FACS ARIA II, purity > 99%, the following mAbs from eBioscience, BD Biosciences, Biolegend or Cell Signalling Technology were used: anti-CD56 (NCAM16.2), and anti-CD3 (UCHT1)). […]
NK cells were prepared as in Example 1, and were cultured in the absence or in the presence of pyruvate at varying concentrations (0.01 to 10 mM) for 3 hours and then co-cultured for 4 hours with K562 NanoLuc®-expressing target cells. The supernatant was collected and bioluminescence was measured using a Tristar Instrument luminometer (Berthold) after addition of Furimazin (the substrate of NanoLuc). The percentage of cell lysis were calculated as explained in Hayek, S. et al., SLAS Discov. […]

For the compound `CC(=O)C(=O)O` [pyruvate], the EC50 stood at 500 µM with NK cells [1] and 260 µM in the assay on NK cells [2].

The values are drawn from patent EP4567103A1, “USE OF PYRUVATE FOR POTENTIATING NK CELLS” (LVMH Recherche, priority 2023, dated 2025).
